From BindingDB's records for doi:10.1074/jbc.M807947200 (National Yang-Ming University, 2009)

What was measured:
[1] = target: Genome polyprotein (Coxsackievirus B3 (strain Nancy), UniProt P03313); experiment: Enzyme Inhibition Assay; settings: pH 6.5; 25 °C
Experimental: (§1) Peptidomimetic inhibitors against CVB3 3Cpro and SARS-CoV 3CLpro. The inhibition constant of SARS 3CLpro was analyzed with reverse-phase HPLC using a C-18 column.

[2] = target: Replicase polyprotein 1ab (Severe acute respiratory syndrome coronavirus, UniProt P0C6X7); experiment: Enzyme Inhibition Assay; settings: pH 6.5; 25 °C
Experimental: as §1

Sequence of Genome polyprotein (P03313 1541-1723 limits assumed): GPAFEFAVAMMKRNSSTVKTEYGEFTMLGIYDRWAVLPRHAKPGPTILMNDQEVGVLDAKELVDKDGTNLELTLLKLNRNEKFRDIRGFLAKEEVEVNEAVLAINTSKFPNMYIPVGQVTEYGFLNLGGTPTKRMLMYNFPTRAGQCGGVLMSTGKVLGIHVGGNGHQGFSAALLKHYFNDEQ

Row | SMILES | Ki [1] [µM] | Ki [2] [µM]
1 | CC(=O)CC=C(C[C@@H]1CCNC1=O)NC(=O)[C@H](CC(C)C)NC(=O)[C@H](CNC(=O)C(C)(C)C)NC(=O)OCc1ccccc1 [TG-0204998] | 0.8 | –
2 | CC(C)C[C@H](NC(=O)[C@@H](NC(=O)OCc1ccccc1)C(C)OC(C)(C)C)C(=O)NC(=CCC(=O)C1CC1)C[C@@H]1CCNC1=O (stereo partly specified) [TG-0205486] | 0.4 | –
3 | C[C@H](OC(C)(C)C)[C@H](NC(=O)OCc1ccccc1)C(=O)N[C@@H](CC1CCCCC1)C(=O)N[C@H](C=O)C[C@@H]1CCNC1=O [benzyl N-[(1S,2S)-2-(tert-butoxy)-1-{[(1S)-2-cyclohexyl-1-{[(2S)-1-oxo-3-[(3S)-2-oxopyrrolidin-3-yl]propan-2-yl]carbamoyl}ethyl]carbamoyl}propyl]carbamate] | 2.5 | 0.054
4 | CCOC(=O)/C=C/[C@H](C[C@@H]1CCNC1=O)NC(=O)[C@H](CC(C)C)NC(=O)[C@@H](NC(=O)OCc1ccccc1)C(C)OC(C)(C)C (stereo partly drawn) [ethyl (2E,4S)-4-[(2S)-2-[(2S,3S)-2-{[(benzyloxy)carbonyl]amino}-3-(tert-butoxy)butanamido]-4-methylpentanamido]-5-[(3S)-2-oxopyrrolidin-3-yl]pent-2-enoate] | 1.5 | 0.058
